Source: patent US20260137819A1 (Radionetics Oncology, Inc., priority 2022, published 2026)
Starred links: 1 amine or outer side, 2 acyl side, 3 side chain; linkers in the order of their positions; H or OH if unused. Non-standard residues stand in square brackets, D forms with d. Residues, ends and D or L forms follow the SMILES beside them. Groups on a side chain read outwards from the residue. *: point of attachment. X1 = COc1cc2c(cc1-c1cccc(N*)c1)-c1c(c(C(=O)N3CCOCC3(C)C)nn1-c1cc(Cl)cc(Cl)c1)CO2; DOTA = O=C(O)CN1CCN(CC(=O)O)CCN(CC(=O)*)CCN(CC(=O)O)CC1; Suc = O=C(CCC(=O)[*:2])[*:1]

These compounds were tested against T1, human follicle-stimulating hormone receptor (FSHR) (Homo sapiens, UniProt P23945) (assay: Measurement of agonist cAMP production by activation of human FSHR). Conditions: CHO-K1 human FSHR cells, 30 minutes at 37° C., HTRF cAMP kit; read-out: hFSHR Agonist cAMP EC50.
T1 construct: host or cells: CHO-K1
T1 sequence (P23945 18-695): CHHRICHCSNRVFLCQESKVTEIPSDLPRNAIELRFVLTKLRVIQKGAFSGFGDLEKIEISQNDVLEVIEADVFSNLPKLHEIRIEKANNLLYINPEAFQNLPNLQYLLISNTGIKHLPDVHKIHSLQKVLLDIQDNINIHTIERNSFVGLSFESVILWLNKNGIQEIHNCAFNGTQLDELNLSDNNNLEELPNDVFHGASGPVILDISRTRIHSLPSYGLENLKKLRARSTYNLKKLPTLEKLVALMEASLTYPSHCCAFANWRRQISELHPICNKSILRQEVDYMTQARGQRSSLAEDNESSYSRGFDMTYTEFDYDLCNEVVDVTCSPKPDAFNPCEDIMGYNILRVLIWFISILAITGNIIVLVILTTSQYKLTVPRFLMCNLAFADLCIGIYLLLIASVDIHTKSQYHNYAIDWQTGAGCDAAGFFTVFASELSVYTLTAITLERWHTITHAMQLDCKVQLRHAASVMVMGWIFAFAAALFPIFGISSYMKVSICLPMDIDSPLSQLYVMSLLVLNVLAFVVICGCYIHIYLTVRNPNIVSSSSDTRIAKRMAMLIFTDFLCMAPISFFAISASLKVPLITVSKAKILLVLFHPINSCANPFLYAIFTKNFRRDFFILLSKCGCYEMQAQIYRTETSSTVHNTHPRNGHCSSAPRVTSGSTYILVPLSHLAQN
Format: cell-based
Outline: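 cAMP output was measured by HTRF after 30 min at 37 °C agonist exposure (0–10,000 nM final) in stably FSHR-transfected CHO-K1 cells. Lysate cAMP was read off a standard curve and fitted to obtain half-maximal EC50.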

Compound	EC50
COc1cc2c(cc1-c1cccc(NCCOCCOCCOCCOCCNC(=O)[C@H](CS(=O)(=O)O)NC(=O)CN3CCN(CC(=O)O)CCN(CC(=O)O)CCN(CC(=O)O)CC3)c1)-c1c(c(C(=O)N3CCOCC3(C)C)nn1-c1cc(Cl)cc(Cl)c1)CO2 [Compound 71]	< 10 nM
COCCOCCOCCOCCOCCOCCC(=O)N[C@H](CC(=O)N1CC2(CCCN2C(=O)CNC(=O)CN2CCN(CC(=O)O)CCN(CC(=O)O)CCN(CC(=O)O)CC2)C1)C(=O)Nc1cccc(-c2cc3c(cc2OC)OCc2c(C(=O)N4CCOCC4(C)C)nn(-c4cc(Cl)cc(Cl)c4)c2-3)c1 [Compound 25, (R)-2,2′,2″-(10-(2-((2-(2-(22-((3-(1-(3,5-dichlorophenyl)-3-(3,3-dimethylmorpholine-4-carbonyl)-7-methoxy-1,4-dihydrochromeno[4,3-c]pyrazol-8-yl)phenyl)carbamoyl)-20-oxo-2,5,8,11,14,17-hexaoxa-21-azatetracosan-24-oyl)-2,5-diazaspiro[3.4]octan-5-yl)-2-oxoethyl)amino)-2-oxoethyl)-1,4,7,10-tetraazacyclododecane-1,4,7-triyl)triacetic acid]	> 100 nM
COc1cc2c(cc1-c1cccc(NC(=O)CCOCCOCCOCCNC(=O)CN3CCN(CC(=O)O)CCN(CC(=O)O)CCN(CC(=O)O)CC3)c1)-c1c(c(C(=O)N3CCOCC3(C)C)nn1-c1cc(Cl)cc(Cl)c1)CO2 [Compound 18, 2,2′,2″-(10-(15-((3-(1-(3,5-dichlorophenyl)-3-(3,3-dimethylmorpholine-4-carbonyl)-7-methoxy-1,4-dihydrochromeno|4,3-c|pyrazol-8-yl)phenyl)amino)-2,15-dioxo-6,9,12-trioxa-3-azapentadecyl)-1,4,7,10-tetraazacyclododecane-1,4,7-triyl)triacetic acid]	10 to 100 nM
COc1cc2c(cc1-c1cncc(NC(=O)CCC(=O)NC[C@H](NC(=O)CN3CCN(CC(=O)O)CCN(CC(=O)O)CCN(CC(=O)O)CC3)C(=O)N3CCN(CCS(=O)(=O)O)CC3)c1)-c1c(c(C(=O)N3CCOCC3(C)C)nn1-c1cc(F)cc(F)c1)CO2 [Compound 49, (S)-2,2′,2″-(10-(2-((3-(4-((5-(1-(3,5-difluorophenyl)-3-(3,3-dimethylmorpholine-4-carbonyl)-7-methoxy-1,4-dihydrochromeno[4,3-c]pyrazol-8-yl)pyridin-3-yl)amino)-4-oxobutanamido)-1-oxo-1-(4-(2-sulfoethyl)piperazin-1-yl)propan-2-yl)amino)-2-oxoethyl)-1,4,7,10-tetraazacyclododecane-1,4,7-triyl)triacetic acid--formic acid (1/1)]	> 100 nM
COc1cc2c(cc1-c1cncc(NC(=O)CCNC(=O)[C@@H](CC(=O)O)NC(=O)[C@@H](CC(=O)O)NC(=O)[C@H](N)CCCNC(=O)CN3CCN(CC(=O)O)CCN(CC(=O)O)CCN(CC(=O)O)CC3)c1)-c1c(c(C(=O)N3CCOCC3(C)C)nn1-c1cc(Cl)cc(Cl)c1)CO2 [Compound 99, 2,2′,2″-(10-((7R,10R,13R)-7-amino-10,13-bis(carboxymethyl)-18-((5-(1-(3,5dichlorophenyl)-3-(3,3-dimethylmorpholine-4-carbonyl)-7-methoxy-1,4-dihydrochromeno|4,3-c|pyrazol-8-yl)pyridin-3-yl)amino)-2,8,11,14,18-pentaoxo-3,9,12,15-tetraazaoctadecyl)-1,4,7,10-tetraazacyclododecane-1,4,7-triyl)triacetic acid]	10 to 100 nM
COc1cc2c(cc1-c1cccc(NC(=O)CCC(=O)NCCCC[C@@H](NC(=O)[C@@H](CO)NC(=O)[C@@H](CC(N)=O)NC(=O)[C@@H](C)NC(=O)CN3CCN(CC(=O)O)CCN(CC(=O)O)CCN(CC(=O)O)CC3)C(=O)N[C@H](CC(N)=O)C(=O)N[C@H](CO)C(=O)N[C@H](C)C(N)=O)c1)-c1c(c(C(=O)N3CCOCC3(C)C)nn1-c1cc(Cl)cc(Cl)c1)CO2 [Compound 97] ({DOTA}-[dA][dN][dS][dK]([Suc-X1])[dN][dS][dA]-NH2)	10 to 100 nM

The next lines start with the values.

EC50	Compound
< 10 nM	COc1cc2c(cc1-c1cccc(NC(=O)NCCNc3c(NCCNC(=O)CN4CCN(CC(=O)O)CCN(CC(=O)O)CCN(CC(=O)O)CC4)c(=O)c3=O)c1)-c1c(c(C(=O)N3CCOCC3(C)C)nn1-c1cc(Cl)cc(Cl)c1)CO2 [Compound 24A, indium (III) 2,2′,2″-(10-(2-((2-((2-((2-(3-(3-(1-(3,5-dichlorophenyl)-3-(3,3-dimethylmorpholine-4-carbonyl)-7-methoxy-1,4-dihydrochromeno[4,3-c]pyrazol-8-yl)phenyl)ureido)ethyl)amino)-3,4-dioxocyclobut-1-en-1-yl)amino)ethyl)amino)-2-oxoethyl)-1,4,7,10-tetraazacyclododecane-1,4,7-triyl)triacetate]
< 10 nM	COc1cc2c(cc1-c1cccc(NC(=O)CCOCCOCCNC(=O)[C@H](CS(=O)(=O)O)NC(=O)CN3CCN(CC(=O)O)CCN(CC(=O)O)CCN(CC(=O)O)CC3)c1)-c1c(c(C(=O)N3CCOCC3(C)C)nn1-c1cc(Cl)cc(Cl)c1)CO2 [Compound 69]
< 10 nM	COc1cc2c(cc1-c1cccc(C(=O)NCCOCCOCCOCCOCCOCCOCCNC(=O)CN3CCN(CC(=O)O)CCN(CC(=O)O)CCN(CC(=O)O)CC3)c1)-c1c(c(C(=O)N(C)C(C)(C)C)nn1-c1cc(Cl)cc(Cl)c1)CO2 [Compound 4]
10 to 100 nM	COc1cc2c(cc1-c1cccc(NC(=O)CNC(=O)C[C@@H](NC(=O)CN3CCN(CC(=O)O)CCN(CC(=O)O)CCN(CC(=O)O)CC3)C(=O)O)c1)-c1c(c(C(=O)N3CCOCC3(C)C)nn1-c1cc(Cl)cc(Cl)c1)CO2 [Compound 32, (R)-2,2′,2″-(10-(2-((1-carboxy-3-((2-((3-(1-(3,5-dichlorophenyl)-3-(3,3-dimethylmorpholine-4-carbonyl)-7-methoxy-1,4-dihydrochromeno|4,3-clpyrazol-8-yl)phenyl)amino)-2-oxoethyl)amino)-3-oxopropyl)amino)-2-oxoethyl)-1,4,7,10-tetraazacyclododecane-1,4,7-triyl)triacetic acid]
10 to 100 nM	COc1cc2c(cc1-c1cccc(NC(=O)CCOCCOCCOCCOCCOCCOCCNC(=O)CN3CCN(CC(=O)O)CCN(CC(=O)O)CCN(CC(=O)O)CC3)c1)-c1c(c(C(=O)N3CCOCC3(C)C)nn1-c1cc(Cl)cc(Cl)c1)CO2 [Compound 16, 2,2′,2″-(10-(24-((3-(1-(3,5-dichlorophenyl)-3-(3,3-dimethylmorpholine-4-carbonyl)-7-methoxy-1,4-dihydrochromeno[4,3-c]pyrazol-8-yl)phenyl)amino)-2,24-dioxo-6,9,12,15,18,21-hexaoxa-3-azatetracosyl)-1,4,7,10-tetraazacyclododecane-1,4,7-triyl)triacetic acid]
< 10 nM	COc1cc2c(cc1-c1cccc(NC(=O)NCCOCCOCCOCCOCCNC(=O)CN3CCN(CC(=O)O)CCN(CC(=O)O)CCN(CC(=O)O)CC3)c1)-c1c(c(C(=O)N3CCOCC3(C)C)nn1-c1cc(Cl)cc(Cl)c1)CO2 [Compound 8A]
10 to 100 nM	COc1cc2c(cc1-c1cncc(NC(=O)CCNC(=O)[C@@H](CC(=O)O)NC(=O)[C@@H](CC(=O)O)NC(=O)CN3CCN(CC(=O)O)CCN(CC(=O)O)CCN(CC(=O)O)CC3)c1)-c1c(c(C(=O)N3CCOCC3(C)C)nn1-c1cc(Cl)cc(Cl)c1)CO2 [Compound 94]
10 to 100 nM	COc1cc2c(cc1-c1cccc(NC(=O)C[C@@H](NC(=O)CN3CCN(CC(=O)O)CCN(CC(=O)O)CCN(CC(=O)O)CC3)C(=O)O)c1)-c1c(c(C(=O)N3CCOCC3(C)C)nn1-c1cc(Cl)cc(Cl)c1)CO2 [Compound 30]
< 10 nM	COc1cc2c(cc1-c1cccc(NC(=O)NCCNC(=O)CCOCCNC(=O)CN3CCN(CC(=O)O)CCN(CC(=O)O)CCN(CC(=O)O)CC3)c1)-c1c(c(C(=O)N3CCOCC3(C)C)nn1-c1cc(Cl)cc(Cl)c1)CO2 [Compound 10, 2,2′,2″-(10-(1-((3-(1-(3,5-dichlorophenyl)-3-(3,3-dimethylmorpholine-4-carbonyl)-7-methoxy-1,4-dihydrochromeno[4,3-c]pyrazol-8-yl)phenyl)amino)-1,6,13-trioxo-9-oxa-2,5,12-triazatetradecan-14-yl)-1,4,7,10-tetraazacyclododecane-1,4,7-triyl)triacetic acid]

Same assay, conditions: hFSHR Agonist cAMP EC50, CHO-K1 human FSHR cells, 30 minutes at 37° C., HTRF cAMP kit

Compound	EC50
COc1cc2c(cc1-c1cccc(NC(=O)CCC(=O)NC3CCN(C(=O)CN4CCN(CC(=O)O)CCN(CC(=O)O)CCN(CC(=O)O)CC4)CC3)c1)-c1c(c(C(=O)N3CCOCC3(C)C)nn1-c1cc(Cl)cc(Cl)c1)CO2 [Compound 11]	< 10 nM
